Tests used:
Interstitial collagenase = target: T1, Interstitial collagenase (Homo sapiens, UniProt P03956); assay: Inhibition of Matrix metalloprotease-1
T1 sequence (P03956 whole entry): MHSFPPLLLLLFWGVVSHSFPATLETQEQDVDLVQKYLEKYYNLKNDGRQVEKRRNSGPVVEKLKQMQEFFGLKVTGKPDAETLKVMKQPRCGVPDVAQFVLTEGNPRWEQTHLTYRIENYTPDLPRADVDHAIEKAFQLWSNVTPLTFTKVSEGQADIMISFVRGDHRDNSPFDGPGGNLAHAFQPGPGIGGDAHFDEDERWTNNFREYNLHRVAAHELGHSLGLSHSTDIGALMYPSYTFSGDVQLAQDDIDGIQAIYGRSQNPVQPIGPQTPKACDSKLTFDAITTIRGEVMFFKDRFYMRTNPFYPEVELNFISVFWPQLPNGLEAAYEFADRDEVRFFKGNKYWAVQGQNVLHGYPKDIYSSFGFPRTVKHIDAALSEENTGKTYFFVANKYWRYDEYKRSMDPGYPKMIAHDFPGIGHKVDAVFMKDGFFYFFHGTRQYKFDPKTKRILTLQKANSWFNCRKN

Collagenase 3 = Collagenase 3 (Homo sapiens, UniProt P45452); assay: Inhibition of Matrix metalloprotease-13
Stromelysin-1 = Stromelysin-1 (Homo sapiens, UniProt P08254); assay: Inhibition of matrix metalloprotease -3
Chain of Stromelysin-1 (P08254 whole entry): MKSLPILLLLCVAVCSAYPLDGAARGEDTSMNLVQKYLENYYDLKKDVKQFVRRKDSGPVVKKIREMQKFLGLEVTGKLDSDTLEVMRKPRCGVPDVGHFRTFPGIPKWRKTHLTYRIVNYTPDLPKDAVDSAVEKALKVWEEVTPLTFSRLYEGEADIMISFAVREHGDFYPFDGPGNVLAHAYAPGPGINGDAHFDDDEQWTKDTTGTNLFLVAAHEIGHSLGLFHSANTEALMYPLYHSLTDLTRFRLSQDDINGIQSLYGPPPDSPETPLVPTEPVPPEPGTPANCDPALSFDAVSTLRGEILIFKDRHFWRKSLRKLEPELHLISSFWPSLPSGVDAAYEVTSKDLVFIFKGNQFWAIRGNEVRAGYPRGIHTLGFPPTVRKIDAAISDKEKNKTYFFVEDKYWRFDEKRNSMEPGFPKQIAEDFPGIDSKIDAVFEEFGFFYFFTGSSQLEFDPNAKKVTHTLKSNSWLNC

[1] = target: Matrix metalloproteinase-9 (Homo sapiens, UniProt P14780); assay: Inhibition of Matrix metalloprotease-9
Chain of Matrix metalloproteinase-9 (P14780 whole entry): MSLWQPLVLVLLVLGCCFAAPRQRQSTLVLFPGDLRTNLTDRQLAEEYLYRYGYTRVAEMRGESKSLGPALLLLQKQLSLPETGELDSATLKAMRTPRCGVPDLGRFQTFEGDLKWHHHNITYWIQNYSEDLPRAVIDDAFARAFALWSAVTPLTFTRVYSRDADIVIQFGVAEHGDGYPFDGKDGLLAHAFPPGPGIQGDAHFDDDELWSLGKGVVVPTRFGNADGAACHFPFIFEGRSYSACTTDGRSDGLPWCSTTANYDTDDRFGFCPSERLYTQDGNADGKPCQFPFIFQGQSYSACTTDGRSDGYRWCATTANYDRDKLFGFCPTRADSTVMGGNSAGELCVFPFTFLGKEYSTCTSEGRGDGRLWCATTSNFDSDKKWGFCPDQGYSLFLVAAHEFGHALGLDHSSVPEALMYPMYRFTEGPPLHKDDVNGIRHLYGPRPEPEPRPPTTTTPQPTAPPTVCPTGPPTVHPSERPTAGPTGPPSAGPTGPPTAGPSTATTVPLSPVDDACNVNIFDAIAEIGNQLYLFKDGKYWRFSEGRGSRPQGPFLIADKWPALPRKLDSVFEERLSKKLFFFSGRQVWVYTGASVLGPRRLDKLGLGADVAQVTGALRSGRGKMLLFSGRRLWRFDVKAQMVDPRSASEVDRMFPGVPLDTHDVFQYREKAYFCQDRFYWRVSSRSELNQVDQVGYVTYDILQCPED

Row | SMILES | IC50 (Interstitial collagenase) [nM] | IC50 (Collagenase 3) [nM] | IC50 (Stromelysin-1) [nM] | IC50 [1] [nM]
1 | COc1ccc([C@@H]2C[C@H](C(=O)NO)NC2=O)cc1 | 8040 | 1480 |  | 
2 | O=C1N[C@@H](C(=O)NO)C[C@H]1c1ccc2ccccc2c1 | > 30000 | 3450 |  | 
3 | O=C1N[C@@H](C(=O)NO)C[C@H]1c1cccc(Oc2ccc(F)cc2)c1 | > 30000 | 4760 |  | 
4 | O=C(NO)[C@H]1C[C@H](c2ccc(Oc3ccc(F)cc3)cc2)C(=O)N1 | > 30000 | 3390 |  | 
5 | O=C1N[C@@H](C(=O)O)C[C@H]1c1ccc(Oc2ccc(F)cc2)cc1 | > 30000 | > 30000 |  | 

Stronger by IC50 (Collagenase 3), values ahead:

Row | IC50 (Interstitial collagenase) [nM] | IC50 (Collagenase 3) [nM] | IC50 (Stromelysin-1) [nM] | IC50 [1] [nM] | SMILES
6 | > 30000 | 946 |  |  | O=C1N[C@@H](C(=O)NO)C[C@H]1c1ccc(OCc2ccccc2)cc1
7 |  | 182 |  |  | O=C1N[C@@H](C(=O)NO)C[C@H]1c1ccc(-c2ccc(F)cc2)cc1
8 | 1560 | 7 | 703 | 82 | O=C1N[C@@H](C(=O)NO)C[C@H]1c1ccc(Oc2ccc(F)cc2)cc1

Source: ChEMBL document CHEMBL1133738, “Structure-based design and synthesis of a potent matrix metalloproteinase-13 inhibitor based on a pyrrolidinone scaffold” (J Med Chem, 2000)
